This is an account of results in US10947242B2, “[1,2,4]triazolo[1,5and#8208;A]pyrimidine compounds as PDE2 inhibitors” (Janssen Pharmaceutica NV, priority 2016, dated 2021).

Read-outs that look alike come from different tables or passages of the source.

Common to all, as to assay type: biochemical
Assay [1] has as its target T1, Human recombinant PDE2A (hPDE2A) (Homo sapiens, UniProt O00408).
T1 construct: His tag (inferred from metal chelate purification); made in house; host or cells: Sf9 insect cells (baculovirus)
As to the kind of experiment: In vitro assay PDE2A (SPA, 3H-cGMP hydrolysis). Particulars: for IC50: read-out: hPDE2A pIC50 (converted); for Emax: read-out: hPDE2A Emax.

Assay [2] has as its target T2, Human recombinant PDE3A (hPDE3A) (Homo sapiens, UniProt Q14432).
T2 construct: purchased Scottish Biomedical; host or cells: Sf9 insect cells
Nature of the assay: In vitro assay PDE3A (SPA, 3H-cAMP hydrolysis).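 As to all read-outs here: the method names PDE3A and the table heading PDE3B.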 Conditions: for IC50: hPDE3B pIC50, read-out: pIC50 (converted); for Emax: read-out: hPDE3B Emax, read-out: Emax. As to the method:
Human recombinant PDE3A (hPDE3A) was supplied as a partially purified insect cell lysate by Scottish Biomedical, it was cloned from human brain and expressed in Sf9 cells. Tested compounds were dissolved and diluted in 100% DMSO to a concentration 100 fold of the final concentration in the assay. Compound dilutions (0.4 μl) were added in 384 well plates to 20 μl of incubation buffer (50 mM Tris pH 7.8, 8.3 mM MgCl2, 1.7 mM EGTA). 10 μl of hPDE3A enzyme in incubation buffer was added and the reaction was started by addition of 10 μl substrate to a final concentration of 0.4 μM cAMP and 2.4 μCi/ml [^3H]-cAMP. The reaction was incubated for 60 min at room temperature. […] After sedimentation of the beads during 30 min the radioactivity was measured in a Perkin Elmer Topcount scintillation counter and results were expressed as cpm. For blanc values the enzyme was omitted from the reaction and replaced by incubation buffer. Control values were obtained by addition of a final concentration of 1% DMSO instead of compound.

Assay [3] concerns the target T3, Human recombinant PDE10A (hPDE10A) (Homo sapiens, UniProt Q9Y233).
T3 construct: His tag (inferred from metal chelate purification); made in house; host or cells: Sf9 insect cells (baculovirus)
As to the kind of experiment: In vitro assay PDE10A, human clone (SPA, 3H-cAMP hydrolysis). As to the method: Rat recombinant PDE10A (rPDE10A2) was expressed in Sf9 cells using a recombinant rPDE10A baculovirus construct. […] Tested compounds were dissolved and diluted in 100% DMSO to a concentration 100 fold of the final concentration in the assay. Human recombinant PDE10A ([…]) was expressed in Sf9 cells using a recombinant hPDE10A baculovirus that was made and amplified in house. […] Compound dilutions (0.4 μl) were added in 384 well plates to 20 μl of incubation buffer (50 mM Tris pH 7.8, 8.3 mM MgCl2, 1.7 mM EGTA). 10 μl of rPDE10A or hPDE10A enzyme in incubation buffer was added and the reaction was started by addition of 10 μl substrate to a final concentration of 60 nM cAMP and 0.008 μCi ^3H-cAMP. The reaction was incubated for 60 minutes at room temperature. […] After sedimentation of the beads during 30 minutes the radioactivity was measured in a Perkin Elmer Topcount scintillation counter and results were expressed as cpm. For blanc values the enzyme was omitted from the reaction and replaced by incubation buffer. Control values were obtained by addition of a final concentration of 1% DMSO instead of compound.

[4] abbreviates: human recombinant PDE2A, 10 μM cGMP substrate.
[5] abbreviates: human clone (h), default, read-out: hPDE10A2 Emax.
Setting [6] is: human clone (h), default, read-out: hPDE10A2 pIC50 (converted).
Where [7] appears, read: human clone by default (no (r) mark), read-out: hPDE10A2 or rPDE10A2 Emax.
Where [8] appears, read: human clone by default (no (r) mark), read-out: hPDE10A2 or rPDE10A2 pIC50 (converted).

T2 sequence (Q14432 whole entry): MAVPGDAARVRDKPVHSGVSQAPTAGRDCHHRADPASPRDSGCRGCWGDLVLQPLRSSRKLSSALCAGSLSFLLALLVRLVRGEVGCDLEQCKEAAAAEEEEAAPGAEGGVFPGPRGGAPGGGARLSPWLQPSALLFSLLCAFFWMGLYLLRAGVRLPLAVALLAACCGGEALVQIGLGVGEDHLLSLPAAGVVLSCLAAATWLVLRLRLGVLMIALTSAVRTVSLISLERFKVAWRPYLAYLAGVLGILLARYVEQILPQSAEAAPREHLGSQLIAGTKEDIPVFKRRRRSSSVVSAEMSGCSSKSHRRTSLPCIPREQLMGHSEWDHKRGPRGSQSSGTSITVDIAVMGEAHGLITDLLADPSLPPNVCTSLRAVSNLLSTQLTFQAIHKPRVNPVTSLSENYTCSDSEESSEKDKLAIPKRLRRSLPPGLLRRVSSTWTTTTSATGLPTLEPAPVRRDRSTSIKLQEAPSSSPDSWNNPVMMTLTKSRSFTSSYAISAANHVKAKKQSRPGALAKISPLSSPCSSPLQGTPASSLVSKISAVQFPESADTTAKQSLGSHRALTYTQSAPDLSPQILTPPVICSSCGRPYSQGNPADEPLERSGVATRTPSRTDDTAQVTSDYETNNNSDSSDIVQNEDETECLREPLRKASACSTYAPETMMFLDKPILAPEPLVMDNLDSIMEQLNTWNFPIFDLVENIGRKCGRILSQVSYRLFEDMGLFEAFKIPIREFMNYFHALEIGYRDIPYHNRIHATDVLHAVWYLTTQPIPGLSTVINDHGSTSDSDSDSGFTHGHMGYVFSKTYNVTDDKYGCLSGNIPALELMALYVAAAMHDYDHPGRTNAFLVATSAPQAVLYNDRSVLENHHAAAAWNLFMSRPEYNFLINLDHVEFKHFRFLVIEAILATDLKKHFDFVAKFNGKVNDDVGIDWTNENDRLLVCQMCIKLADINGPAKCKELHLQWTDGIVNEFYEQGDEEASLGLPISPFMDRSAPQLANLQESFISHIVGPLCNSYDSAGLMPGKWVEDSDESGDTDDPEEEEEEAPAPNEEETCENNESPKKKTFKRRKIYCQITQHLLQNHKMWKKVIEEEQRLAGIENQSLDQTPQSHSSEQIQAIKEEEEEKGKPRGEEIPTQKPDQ
T1 sequence (O00408 whole entry): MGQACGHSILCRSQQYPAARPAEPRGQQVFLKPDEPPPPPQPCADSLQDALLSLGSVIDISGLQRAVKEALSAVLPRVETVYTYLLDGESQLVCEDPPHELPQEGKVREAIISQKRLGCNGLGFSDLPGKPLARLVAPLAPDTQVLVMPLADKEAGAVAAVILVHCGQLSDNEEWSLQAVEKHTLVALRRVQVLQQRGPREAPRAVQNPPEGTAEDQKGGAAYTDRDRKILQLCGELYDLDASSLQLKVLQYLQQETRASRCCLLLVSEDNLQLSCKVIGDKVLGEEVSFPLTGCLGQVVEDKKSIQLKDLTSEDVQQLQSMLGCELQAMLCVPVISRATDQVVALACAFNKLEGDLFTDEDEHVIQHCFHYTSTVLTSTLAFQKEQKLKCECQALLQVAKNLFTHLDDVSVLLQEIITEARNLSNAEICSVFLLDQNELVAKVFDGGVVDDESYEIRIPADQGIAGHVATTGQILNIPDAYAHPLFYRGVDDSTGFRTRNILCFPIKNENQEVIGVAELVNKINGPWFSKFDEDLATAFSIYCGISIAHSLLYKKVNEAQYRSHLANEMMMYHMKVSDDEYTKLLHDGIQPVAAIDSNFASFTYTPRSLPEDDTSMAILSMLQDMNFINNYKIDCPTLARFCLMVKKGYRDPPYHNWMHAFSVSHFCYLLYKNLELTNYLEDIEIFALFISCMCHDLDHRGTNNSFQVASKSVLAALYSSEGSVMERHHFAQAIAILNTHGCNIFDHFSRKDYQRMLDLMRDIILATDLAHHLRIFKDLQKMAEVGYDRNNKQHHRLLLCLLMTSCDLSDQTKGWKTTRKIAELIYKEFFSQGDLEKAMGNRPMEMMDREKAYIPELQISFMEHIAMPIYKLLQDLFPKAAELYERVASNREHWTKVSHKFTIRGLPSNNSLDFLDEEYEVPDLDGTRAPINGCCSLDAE
T3 sequence (Q9Y233 267-1055): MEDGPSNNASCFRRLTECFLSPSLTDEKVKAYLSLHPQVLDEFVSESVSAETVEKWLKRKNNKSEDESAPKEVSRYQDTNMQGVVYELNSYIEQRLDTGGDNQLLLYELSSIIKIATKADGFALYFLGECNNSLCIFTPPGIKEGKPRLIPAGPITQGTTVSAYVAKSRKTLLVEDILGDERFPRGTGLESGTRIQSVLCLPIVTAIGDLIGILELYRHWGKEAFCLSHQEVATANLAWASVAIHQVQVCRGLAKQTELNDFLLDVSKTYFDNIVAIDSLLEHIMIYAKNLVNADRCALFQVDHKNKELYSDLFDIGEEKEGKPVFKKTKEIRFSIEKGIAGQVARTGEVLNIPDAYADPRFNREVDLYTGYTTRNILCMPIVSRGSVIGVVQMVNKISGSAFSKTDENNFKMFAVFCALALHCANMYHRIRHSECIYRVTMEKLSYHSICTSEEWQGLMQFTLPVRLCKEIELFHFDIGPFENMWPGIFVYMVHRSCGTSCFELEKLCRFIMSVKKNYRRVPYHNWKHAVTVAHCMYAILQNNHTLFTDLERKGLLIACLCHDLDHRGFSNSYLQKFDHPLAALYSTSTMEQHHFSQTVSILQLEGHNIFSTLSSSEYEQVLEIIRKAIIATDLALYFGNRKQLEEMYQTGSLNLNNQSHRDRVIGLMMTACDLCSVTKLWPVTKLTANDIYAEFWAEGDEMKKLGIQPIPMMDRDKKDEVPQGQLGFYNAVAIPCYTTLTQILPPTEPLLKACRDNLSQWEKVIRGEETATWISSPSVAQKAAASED

Regarding `Cc1cc(C(=O)N2CC[C@@H](C)[C@H](c3cc(C#N)nc4ncnn34)C2)cc(C)n1` [Compound 26a], in assay [1], the “hPDE2A Emax” value was found to be 21 and the “hPDE2A pIC50” value is on record as less than 5. For the same compound, the “hPDE2A Emax” value in assay [1] (human recombinant PDE2A) was 21. In assay [1] (setting [4]), the “hPDE2A pIC50” value is reported as less than 5. For the same compound, the “hPDE3B Emax” value in assay [2] is reported as 0. Moreover, in assay [3] (human clone (h), default), the “hPDE10A2 Emax” value was 7 and the “hPDE10A2 pIC50” value is less than 5.
The term Emax denotes the greatest response seen or fitted, relative to the assay's reference. `COc1ccc2c(c1)cc(C(=O)N1CC[C@@H](C)[C@H](c3cc(C(F)F)nc4ncnn34)C1)n2C` [Compound 172]: the IC50 in assay [1] (setting [4]) is 4.57 nM; in assay [1], 4.57 nM; in assay [2] it was 269 nM; in assay [3] (setting [6]), 32.4 nM. Further, the Emax was found to be 101% in assay [1] (human recombinant PDE2A), 101% in assay [1], 98% in assay [2] and 100% in assay [3] (setting [5]).
With `CCCC[C@@H]1CCN(C(=O)c2cc(C)nc(C)c2)C[C@H]1c1cc(C(F)F)nc2ncnn12` (single isomer, unassigned) [Compound 45], the IC50 in assay [1] (setting [4]), in assay [1], in assay [2] and in assay [3] (setting [6]) was more than 10000 nM each time. For the same compound, the Emax in assay [1] (human recombinant PDE2A) came to 37%; in assay [1], 37%; in assay [2] it was 1%; in assay [3] (setting [5]) it was 24%.
In the case of `Cc1nc2ccncc2cc1C(=O)N1CC[C@@H](C)[C@H](c2cc(C(F)F)nc3ncnn23)C1` [Compound 151], the Emax came out at 100% in assay [1], 11% in assay [2] and 85% in assay [3] (setting [5]). Besides, the IC50 in assay [1] was 40.7 nM; in assay [2] it was more than 10000 nM; in assay [3] (setting [6]), 1380 nM.
Take `C[C@@H]1CCN(C(=O)c2cnc3ccccc3c2O)C[C@H]1c1cc(C(F)F)nc2ncnn12` [Compound 146]: the Emax in assay [1] was 100%; in assay [2] it was 85%; in assay [3] (setting [5]) it was 76%. The figures for the IC50 in assay [1], in assay [2] and in assay [3] (setting [6]) were 37.2 nM, 1660 nM and 3310 nM, respectively.
With `Cc1c(C(=O)N2CC[C@@H](C)[C@H](c3cc(C(F)F)nc4ncnn34)C2)ccc2c1OCO2` [Compound 145], the IC50 in assay [1] (setting [4]) was 36.3 nM; in assay [1] it was 36.3 nM; in assay [2], 2040 nM; in assay [3] (setting [6]), 646 nM. For the same compound, the Emax in assay [1] (human recombinant PDE2A) worked out at 99%; in assay [1], 99%; in assay [2], 86%; in assay [3] (setting [5]), 93%.
For `Cc1csc(C(=O)N2CC[C@@H](C)[C@H](c3cc(C(F)F)nc4ncnn34)C2)c1Cl` [Compound 147], the IC50 was 38 nM in assay [1] (setting [4]), 38 nM in assay [1], 2240 nM in assay [2] and 871 nM in assay [3] (setting [6]). In addition, the Emax in assay [1] (human recombinant PDE2A) is 100%; in assay [1], 100%; in assay [2], 81%; in assay [3] (setting [5]), 90%.
With `Cc1cc(C(=O)N2[C@H]3CC[C@H](c4cc(C(F)F)nc5ncnn45)[C@@H]2CC3)cc(F)c1F` [Compound 344], the Emax in assay [1] stood at 99%; in assay [2], 61%; in assay [3] (setting [7]) it was 80%. Also, the IC50 is 29.5 nM in assay [1], 7240 nM in assay [2] and 2570 nM in assay [3] (setting [8]).
As to `C[C@@H]1CCN(C(=O)c2c[nH]c3ccc(F)cc23)C[C@H]1c1cc(C(F)F)nc2ncnn12` [Compound 112], the IC50 in assay [1] (setting [4]) is 1 nM; in assay [1] it was 1 nM; in assay [2], 1780 nM; in assay [3] (setting [6]), 47.9 nM. The Emax worked out at 101% in assay [1] (human recombinant PDE2A), 101% in assay [1], 84% in assay [2] and 99% in assay [3] (setting [5]).
With `C[C@@H]1CCN(C(=O)c2nccnc2Cl)C[C@H]1c1cc(C(F)F)nc2ncnn12` [Compound 237], the IC50 is 186 nM in assay [1] (setting [4]); 186 nM in assay [1]; more than 10000 nM in assay [2]; 8130 nM in assay [3] (setting [6]); 8130 nM in assay [3] (setting [8]). Besides, the Emax in assay [1] (human recombinant PDE2A) is 97%; in assay [1] it was 97%; in assay [2], 20%; in assay [3] (setting [5]) it was 51%; in assay [3] (setting [7]), 51%.
In the case of `O=C(c1ccc2c(c1)OC(F)(F)O2)N1[C@H]2CC[C@H](c3cc(C(F)F)nc4ncnn34)[C@@H]1CC2` [Compound 350], the Emax in assay [1] came out at 100%; in assay [2], 74%; in assay [3] (setting [7]), 85%. Besides, the results for the IC50 in assay [1], in assay [2] and in assay [3] (setting [8]) were 25.1 nM, 4900 nM and 2090 nM, respectively.
Turning to `Cc1cc2ccc(C(=O)N3CC[C@@H](C)[C@H](c4cc(C(F)F)nc5ncnn45)C3)cn2c1` [Compound 289], the Emax came out at 100% in assay [1], 98% in assay [2] and 99% in assay [3] (setting [7]). For the same compound, the IC50 was 2.4 nM in assay [1], 178 nM in assay [2] and 63.1 nM in assay [3] (setting [8]).
`C[C@@H]1CCN(C(=O)c2ccnc(Cl)c2F)C[C@H]1c1cc(C(F)F)nc2ncnn12` [Compound 55]: the IC50 in assay [1] (setting [4]) was 12.6 nM; in assay [1] it was 12.6 nM; in assay [2], more than 10000 nM; in assay [3] (setting [6]), 1780 nM. Further, the maximum response (Emax) came to 101% in assay [1] (human recombinant PDE2A), 101% in assay [1], 41% in assay [2] and 83% in assay [3] (setting [5]).
As for `Cc1cccnc1C(=O)N1CC[C@@H](C)[C@H](c2cc(C(F)F)nc3ncnn23)C1` [Compound 229], the IC50 in assay [1] (setting [4]) was 562 nM; in assay [1] it was 562 nM; in assay [2], more than 10000 nM; in assay [3] (setting [6]) it was more than 10000 nM; in assay [3] (setting [8]), more than 10000 nM. In addition, the Emax came out at 95% in assay [1] (human recombinant PDE2A); 95% in assay [1]; 18% in assay [2]; 33% in assay [3] (setting [5]); 33% in assay [3] (setting [7]).
In the case of `C[C@@H]1CCN(C(=O)c2cc3ccc(C(F)(F)F)cc3[nH]2)C[C@H]1c1cc(C(F)F)nc2ncnn12` [Compound 94], the IC50 is 0.501 nM in assay [1] (setting [4]), 0.501 nM in assay [1], 105 nM in assay [2] and 11.7 nM in assay [3] (setting [6]). The Emax in assay [1] (human recombinant PDE2A) was 101%; in assay [1], 101%; in assay [2] it was 99%; in assay [3] (setting [5]), 97%.
As to `C[C@@H]1CCN(C(=O)c2ncccc2N)C[C@H]1c1cc(C(F)F)nc2ncnn12` [Compound 233], the IC50 was 575 nM in assay [1] (setting [4]); 575 nM in assay [1]; more than 10000 nM in assay [2]; more than 10000 nM in assay [3] (setting [6]); more than 10000 nM in assay [3] (setting [8]). For the same compound, the Emax in assay [1] (human recombinant PDE2A) is 94%; in assay [1] it was 94%; in assay [2], 10%; in assay [3] (setting [5]), 26%; in assay [3] (setting [7]) it was 26%.
Regarding `C[C@@H]1CCN(C(=O)c2c(F)cccc2F)C[C@H]1c1cc(C(F)F)nc2ncnn12` [Compound 149], the IC50 in assay [1] (setting [4]) is 38.9 nM; in assay [1], 38.9 nM; in assay [2] it was 5130 nM; in assay [3] (setting [6]), 1820 nM. Besides, the Emax in assay [1] (human recombinant PDE2A) came to 99%; in assay [1] it was 99%; in assay [2], 66%; in assay [3] (setting [5]), 83%.
Take `Cc1cc([C@@H]2CN(C(=O)c3cc(C)sc3C)CC[C@H]2C)n2ncnc2n1` [Compound 16]: the IC50 in assay [1] (setting [4]) was 6.17 nM; in assay [1], 6.17 nM; in assay [2], 1660 nM; in assay [3] (setting [6]), 63.1 nM. For the same compound, the Emax came to 100% in assay [1] (human recombinant PDE2A), 100% in assay [1], 88% in assay [2] and 98% in assay [3] (setting [5]).
